In patent US12317897B2, “Methods of controlling or preventing infestation of vegetable, tomato and potato plants by phytopathogenic microorganisms” (SYNGENTA CROP PROTECTION AG, priority 2017, dated 2025):

How the values were obtained:
Format in all cases: in vivo
[1] = test system: Fusarium oxysporum; assay: Fusarium oxysporum in tomato, greenhouse trial, drench at planting; conditions: 100 g AI/ha, 132 days after planting
Experimental: Fusarium oxysporum in Tomato:
A tomato greenhouse trial was carried out in Sanlucar de Barrameda, Cadiz, Spain in 2017 to evaluate the efficacy of different compounds against Fusarium oxysporum in tomato.
Three week old tomato plants were transplanted on Apr. 7, 2017 and the afterwards drench applied with the compounds using a water volume of 100 ml per plant.
In order to increase the disease pressure 60 ml Fusarium oxysporum suspension with a concentration of 1′000′000 spores per milliliter of water was drenched directly in the planting hole were the plants will be transplanted the next day. The assessment on disease incidence and was done 132 days after transplanting on Aug. 17, 2017.
Assessments: Pest Incidence, 132 Days after Planting

[2] = test system: Fusarium oxysporum; assay: Fusarium oxysporum in melon, greenhouse trial, drench at planting; conditions: 60 g AI/ha, 69 days after planting
Experimental: Fusarium oxysporum in Melon:
A melon greenhouse trial was carried out in El Ejido, Almeria, Spain in 2017 to evaluate the efficacy of different compounds against Fusarium oxysporum in melon.
The melon transplants were planted on May 5, 2017 and the afterwards drench applied with the compounds using a water volume of 100 ml per plant.
In order to increase the disease pressure each plot has been inoculated with 900 ml Fusarium oxysporum suspension with a concentration of 100′000 spores per millilitre of water three days before transplanting. The first disease symptoms were visible three weeks after transplanting and an assessment on disease severity and was done 69 days after transplanting on Jul. 13, 2017.
Assessments: Pest Severity, 69 Days after Planting

[3] = test system: Alternaria solani; assay: Alternaria solani (early blight) on potato, field trial, in-furrow spray at planting; conditions: 250 g AI/ha, 89 days after planting
Experimental: Alternaria solani on Potato: A potato field trial was carried out in Tompkins, New York, USA in 2018 to evaluate the efficacy of different compounds against early blight disease caused by Alternaria solani. The potato tubers were applied in-furrow at planting by using boom sprayer with a flat fan nozzle. The disease occurred beginning of August and an assessment on disease severity and was done Sep. 5, 2018. [table] [table] [table] [table] [table] [table] Assessments: Pest Severity, 89 Days after Planting

[4] = test system: Fusarium oxysporum; assay: Fusarium oxysporum on okra, field trial, drench at planting; conditions: 375 g AI/ha, 60 days after planting
Experimental: Fusarium oxysporum on Okra:
An okra field trial was carried out in Kuppanur, Coimbatore, India in 2018 to evaluate the efficacy of different compounds against Fusarium oxysporum in okra.
The okra seeds were planted on Jun. 29, 2018 and directly afterwards drench applied with the compounds using a water volume of 50 ml per plant. The disease occurred two weeks after planting and an assessment on disease incidence and was done Aug. 28, 2018.
Assessments: Pest Incidence, 60 Days after Planting

With `CON(C(=O)c1cn(C)nc1C(F)F)C(C)Cc1c(Cl)cc(Cl)cc1Cl` (centres unmarked) [COMPOUND 2 SC 200, PYDIFLUMETOFEN] the “Pest incidence (%)” value ([1]; tomato Irati, CHECK 78.33) was 15.00, B %, the “% efficacy based on pest incidence” value ([1]; tomato) was 80.85% and the “Pest severity (%)” value ([2]; melon Brisa, CHECK 82.41) was 16.67, B %. For the same compound, the “% efficacy based on pest severity” value ([2]; melon) was 79.77%.
For `O=C(NCCc1ncc(C(F)(F)F)cc1Cl)c1ccccc1C(F)(F)F` [COMPOUND 2 SC 500, Fluopyram], the “Pest severity (%)” value ([3]; potato Red Norland, CHECK 97.25) was 19.75, C %, the Emax at 250 g/ha ([3]; Alternaria solani, 2136 h, potato, read-out: % efficacy based on pest severity) was 79.7% and the “Pest incidence (%)” value ([4]; okra Samrat, CHECK 84.20) was 20.50, C %. It also gave an Emax at 375 g/ha ([4]; Fusarium oxysporum, in Abelmoschus esculentus, soil, 1440 h, okra, read-out: % efficacy based on pest incidence) of 75.7%.
